Assay results: patent US20220169654A1, “New Organic Compounds” (Servier Pharmaceuticals LLC, priority 2020, published 2022)

What was measured:
[1] = target: T1, MAT2A homodimer (Homo sapiens, UniProt P31153); assay: MAT2A inhibition (biochemical, liberated phosphate, PiColorLock Gold); conditions: recombinant MAT2A homodimer; IC50 bin with Max Inh.; read-out: Enzyme Inhibition Bin
T1 construct: inferred from Ni sepharose purification with imidazole elution; made in house; host or cells: Sf9 insect cells, baculovirus (Bac to Bac, pFASTBAC1)
T1 sequence (P31153 whole entry): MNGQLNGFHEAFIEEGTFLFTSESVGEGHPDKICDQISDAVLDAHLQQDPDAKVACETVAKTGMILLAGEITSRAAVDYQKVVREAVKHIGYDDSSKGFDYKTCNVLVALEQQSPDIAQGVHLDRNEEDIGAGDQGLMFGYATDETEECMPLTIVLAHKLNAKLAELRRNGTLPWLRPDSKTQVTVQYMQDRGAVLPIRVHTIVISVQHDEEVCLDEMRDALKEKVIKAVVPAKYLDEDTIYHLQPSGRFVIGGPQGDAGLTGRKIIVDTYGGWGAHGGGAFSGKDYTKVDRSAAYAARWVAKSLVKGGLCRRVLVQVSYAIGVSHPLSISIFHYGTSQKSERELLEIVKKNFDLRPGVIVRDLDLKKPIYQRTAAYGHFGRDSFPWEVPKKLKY
Procedure: Mat2A protein was expressed by recombinant baculovirus in SF9 infected cells using the Bac to Bac system cloned into the pFASTBAC1 vector (Invitrogen, Carlsbad, Calif.). Recombinant MAT2A was isolated from the cell lysate of 150 g of infected cells using HP Ni sepharose column chromatography. Recombinant MAT2A homodimer was eluted with 250 and 500 mM imidazole, and fractions containing MAT2A were identified by sodium dodecyl sulfate polyacrylamide gel electrophoresis and pooled.
For determination of the inhibitory potency of compounds against the MAT2A homodimer, protein was diluted to 4 μg/mL in assay buffer (50 mM Tris, pH 8.0, 50 mM KCl, 15 mM MgCl2, 0.3 mM EDTA, 0.005% [w/v] bovine serum albumin [BSA]). Test compound was prepared in 100% dimethyl sulfoxide (DMSO) at 50× the desired final concentration. A 1 μL volume of compound dilution was added to 40 μL of enzyme dilution and the mixture was allowed to equilibrate for 60 minutes at 25° C. The enzymatic assay was initiated by the addition of 10 μL of substrate mix (500 μM ATP, pH 7.0, 400 μM L-methionine in 1× assay buffer), and the mixture was incubated for a further 60 minutes at 25° C. The reaction was halted and the liberated phosphate released by the enzyme in stoichiometric amounts by the production of S-adenosyl methionine (SAM) was measured using the PiColorLock Gold kit (Innova Biosciences, UK). Absolute product amounts were determined by comparison to a standard curve of potassium phosphate buffer, pH 8.0. The compounds were also tested in a secondary assay utilizing 1 μg/mL MAT2A and incubated for 5 hours at 25° C. before halting and processing as above.
Specific compounds disclosed herein were tested in the foregoing assay and they were determined to inhibit MAT2A with an IC50. See, Table 1 below.

[2] = test system: SAM in HCT116 human colon carcinoma cell line with MTAP gene deleted (MTAP −/−); assay: Cellular assay of target engagement (SAM), LC-MS/MS, 72 hrs; format: cell-based; conditions: HCT-116, IC50 bin with Max Inh., read-out: Cell 72 h SAM Inhibition (MTAP −/−)
Procedure: Measurement of MAT2A activity in cells was made by direct quantitation of the abundance of the product of its enzymatic activity, SAM. Cancer cells were treated with candidate MAT2A inhibitors for a suitable incubation period, and the cells were then lysed using a reagent which quenched any further enzyme activity. Soluble metabolites including SAM were collected and SAM itself was directly measured from the lysate using quantitative LC-MS/MS.
A typical assay was performed using an HCT116 human colon carcinoma cell line which was genetically engineered to delete the MTAP gene (commercially available from Horizon Discovery). This cell line was utilized because it was determined that loss of the MTAP gene predicts sensitivity to MAT2A inhibitors. Cells were plated in 96-well dishes at appropriate cell density. Following 24 hours, cells were then treated with the candidate MAT2A inhibitor. Prior to addition to cells, the compound was first serially diluted in 100% DMSO, typically as a 3-fold serial dilution starting at 500× top dose with 10 dose points including DMSO only control. Compound was then transferred to a working stock plate in cell culture media by adding 5 μL of compound in DMSO to 495 μL of cell culture media. This working stock was then added to cells via a further 5-fold dilution, by adding 25 μL of working stock to 100 μL of cells in culture media. Following compound addition, cells were incubated at 37° C./5% CO2 for 72 hrs.
To quantitate SAM levels following compound treatment, cells were gently washed once in ammonium carbonate buffer (75 mM at pH 7.4), placed on dry ice, and lysed with metabolite extraction buffer (80% cold methanol and 20% water (v/v) with acetic acid at 1M final concentration with 200 ng/mL deuterated d3-SAM as internal control). Following centrifugation at 4° C. at 3,200 rpm for 30 minutes, the supernatant was collected and stored at −80° C. until analysis by Liquid Chromatography with tandem Mass Spectrometry (LC-MS/MS). LC-MS/MS analysis was performed using an API6500 Mass Spectrometer (Sciex, Framingham, Mass., USA) operating in positive ion spray mode and equipped with a Waters UPLC Acquity (Waters, Milford, Mass., USA) BEH Amide column. Multiple Reaction Monitoring data was acquired for SAM and the d3-SAM standard, using a mass transition pair at m/z 399.2→250.1 and 402.2→250.1, respectively. In a typical LC-MS/MS analysis, the initial flow rate was 0.5 ml/min of 25% mobile phase A (acetonitrile and water at 5:95 (v/v) with 1% formic acid and 10 mM ammonium acetate) and 75% mobile phase B (acetonitrile and water at 95:5 (v/v) with 1% formic acid and 10 mM ammonium acetate), 0.2-0.5 minutes with 75%-35% mobile phase B, 25%-65% mobile phase A, at 0.5 min 65% mobile phase A and 35% mobile phase B, 1.0-1.1 minutes with 35%-75% mobile phase B, 65%-25% mobile phase A, at 1.1 min 25% mobile phase A and 75% mobile phase B with a total run time of 1.5 minutes.
Specific compounds disclosed herein were tested in the foregoing assay and they were determined to inhibit SAM with an IC50. See, Table 1 below.

[3] = test system: HCT116 MTAP−/−; assay: Inhibition of cellular proliferation, 4 days, Cell Titer Glo, HCT116 MTAP−/−; format: cell-based; conditions: Homo sapiens, HCT-116, 96 h, IC50 bin with Max Inh., read-out: 4 Day Relative Growth Inhibition (MTAP −/−)
Procedure: (§1) Test compound impact on cancer cell growth was assessed by treating cancer cells with compound for 4 days and then measuring proliferation using an ATP-based cell proliferation readout (Cell Titer Glo, Promega Corporation).
(§2) In a typical assay an isogenic pair of HCT116 human colon carcinoma cell lines which vary only in MTAP deletion status (HCT116 MTAP+/+ and HCT116 MTAP−/−) were plated in 96-well dishes at appropriate cell density. Following 24 hours, cells were then treated with the candidate MAT2A inhibitor. Prior to addition to cells, the compound was first serially diluted in 100% DMSO, typically as a 3-fold serial dilution starting at 500× top dose with 10 dose points including DMSO only control. Compound was then transferred to a working stock plate in cell culture media by adding 5 μL of compound in DMSO to 495 μL of cell culture media. This working stock was then added to cells via a further 5-fold dilution, by adding 25 μL of working stock to 100 μL of cells in culture media. Following compound addition, cells were incubated at 37° C./5% CO2 for 4 days.
(§3) To measure inhibition of cellular proliferation, cells were allowed to equilibrate to room temperature for 30 minutes, and were then treated with 125 μL of Cell Titer Glo reagent. The plate was then covered with aluminum foil and shaken for 15 minutes to ensure complete mixing and full cell lysis. Luminescent signal was then measured using a plate-based luminometer Veritas version 1.9.2 using ATP standard curve to confirm assay reproducibility from run to run. This luminescence measure was converted to a proliferation index by subtracting from each data point the ATP luminescence signal measured from a bank (no cells) well and dividing by the ATP luminescence signal measured in 0.2% DMSO control well adjusted for signal in blank well. Compound activity was then represented as a percentage change in proliferation relative to a within-plate DMSO control against log 10 of compound concentration in molar (M) units.
(§4) Specific compounds disclosed herein were tested in the foregoing assay and they were determined to inhibit cellular proliferation with an IC50. See, Table 1 below.

[4] = test system: HCT116 MTAP+/+; assay: Inhibition of cellular proliferation, 4 days, Cell Titer Glo, HCT116 MTAP+/+; format: cell-based; conditions: Homo sapiens, HCT-116, 96 h, IC50 bin with Max Inh., read-out: 4 Day Relative Growth Inhibition (MTAP +/+)
Procedure: as §1, §2, §3, §4

SMILES	IC50 [1]	IC50 [2]	IC50 [3]	IC50 [4]
Cn1cc2cc(-n3nc4c(C#N)cn(CC5CC5)c4c(-c4ccc(CO)nc4)c3=O)ccc2n1 [Example 158, 5-(cyclopropylmethyl)-4-(6-(hydroxymethyl)pyridin-3-yl)-2-(2-methyl-2H-indazol-5-yl)-3-oxo-3,5-dihydro-2H-pyrrolo[3,2-c]pyridazine-7-carbonitrile]	< 100 nM	100 to 1000 nM	100 to 1000 nM	> 1000 nM
Cc1ccc(-c2c(=O)n(-c3ccc4nn(C)cc4c3)nc3c(C(N)=O)cn(CC4CC4)c23)cn1 [Example 175, 5-(cyclopropylmethyl)-2-(2-methyl-2H-indazol-5-yl)-4-(6-methylpyridin-3-yl)-3-oxo-3,5-dihydro-2H-pyrrolo[3,2-c]pyridazine-7-carboxamide]	< 100 nM	100 to 1000 nM	100 to 1000 nM	> 1000 nM
CCCn1cc(C#N)c2nn(-c3ccc4nn(C)cc4c3)c(=O)c(-c3ccc(C4CC4)nc3)c21 [Example 127, 4-(6-cyclopropylpyridin-3-yl)-2-(2-methyl-2H-indazol-5-yl)-3-oxo-5-propyl-3,5-dihydro-2H-pyrrolo[3,2-c]pyridazine-7-carbonitrile]	< 100 nM	< 100 nM	100 to 1000 nM	> 1000 nM
[2H]C([2H])([2H])n1cc2cc(-n3nc4c(C(=O)NC)cn(CC5CC5)c4c(-c4ccc(C5CC5)nc4)c3=O)ccc2n1 [Example 172, 5-(cyclopropylmethyl)-4-(6-cyclopropylpyridin-3-yl)-N-methyl-2-(2-(methyl-d3)-2H-indazol-5-yl)-3-oxo-3,5-dihydro-2H-pyrrolo[3,2-c]pyridazine-7-carboxamide]	< 100 nM	< 100 nM	< 100 nM	> 1000 nM
[2H]C([2H])([2H])Oc1ccc(-n2nc3c(C#N)cn(CC4CC4)c3c(-c3ccc(C4CC4)nc3)c2=O)cc1 [Example 124, 5-(cyclopropylmethyl)-4-(6-cyclopropylpyridin-3-yl)-2-(4-(methoxy-d3)phenyl)-3-oxo-3,5-dihydro-2H-pyrrolo[3,2-c]pyridazine-7-carbonitrile]	< 100 nM	< 100 nM	100 to 1000 nM	> 1000 nM

Continued, values first:

IC50 [1]	IC50 [2]	IC50 [3]	IC50 [4]	SMILES
< 100 nM	100 to 1000 nM	100 to 1000 nM	100 to 1000 nM	Cn1cc2cc(-n3nc4cnn(CC5CC5)c4c(-c4ccc(C5CC5)nc4)c3=O)ccc2n1 [Example 219, 1-(cyclopropylmethyl)-7-(6-cyclopropylpyridin-3-yl)-5-(2-methyl-2H-indazol-5-yl)-1,5-dihydro-6H-pyrazolo[4,3-c]pyridazin-6-one]
< 100 nM	< 100 nM	< 100 nM	100 to 1000 nM	COc1ccc(-c2c(=O)n(-c3ccc4nn(C)cc4c3)nc3c(C)nn(CC4CC4)c23)cc1 [Example 214, 1-(cyclopropylmethyl)-7-(4-methoxyphenyl)-3-methyl-5-(2-methyl-2H-indazol-5-yl)-1,5-dihydro-6H-pyrazolo[4,3-c]pyridazin-6-one]
< 100 nM	100 to 1000 nM	100 to 1000 nM	100 to 1000 nM	Cn1cc2cc(-n3nc4c(C#N)cn(CC5CC5)c4c(-c4ccc(C5(C)CC5)nc4)c3=O)ccc2n1 [Example 254, 5-(cyclopropylmethyl)-2-(2-methyl-2H-indazol-5-yl)-4-[6-(1-methylcyclopropyl)pyridin-3-yl]-3-oxo-2H,3H,5H-pyrrolo[3,2-c]pyridazine-7-carbonitrile]
< 100 nM	< 100 nM	< 100 nM	> 1000 nM	CCc1cn(CC2CC2)c2c(-c3ccc(C4CC4)nc3)c(=O)n(-c3ccc4nn(C)cc4c3)nc12 [Example 247, 5-(cyclopropylmethyl)-4-(6-cyclopropylpyridin-3-yl)-7-ethyl-2-(2-methyl-2H-indazol-5-yl)-2,5-dihydro-3H-pyrrolo[3,2-c]pyridazin-3-one]
< 100 nM	< 100 nM	< 100 nM	100 to 1000 nM	Cn1cc2cc(-n3nc4c(c(-c5ccc(OC(F)F)cc5)c3=O)n(CC3CC3)c(=O)n4C)ccc2n1 [Example 196, 5-(cyclopropylmethyl)-4-[4-(difluoromethoxy)phenyl]-7-methyl-2-(2-methyl-2H-indazol-5-yl)-2H,3H,5H,6H,7H-imidazolidino[4,5-c]pyridazine-3,6-dione]
< 100 nM	> 1000 nM	100 to 1000 nM	> 1000 nM	Cn1cc2cc(-n3nc4c(C#CC(F)(F)F)cn(CC5CC5)c4c(-c4ccc(C5CC5)nc4)c3=O)ccc2n1 [Example 245, 5-(cyclopropylmethyl)-4-(6-cyclopropylpyridin-3-yl)-2-(2-methyl-2H-indazol-5-yl)-7-(3,3,3-trifluoroprop-1-yn-1-yl)-2,5-dihydro-3H-pyrrolo[3,2-c]pyridazin-3-one]
